Assay [1] concerns p47phox in Raw264.7 cells. Nature of the assay: LPS-induced p47phox recruitment. To be noted: LPS/PLAG treatment. The assay is classed as cell-based. Here is the method: Raw264.7 cells were divided into two groups: 1) LPS treated group and 2) LPS/PLAG treated group. For the LPS treated group, cells were treated with 100 μg/ml of DMSO (as solvent control) for 1 hour and treated with LPS (100 ng/ml) for 15, 30, 60, and 120 minutes. For LPS/PLAG treated group, cells were treated with PLAG (100 μg/ml) for 1 hour and treated with LPS (100 ng/ml) for 15, 30, 60, and 120 minutes. Cells were then fixed and stained using rat anti-TLR4/MD2 antibody with Alexa488-conjugated anti-rat IgG secondary antibody. These were analyzed by confocal microscopy. Raw264.7 cells stimulated under the same conditions were fixed, permeabilized, and stained with CM-H2DCFDA, the LYSO-ID® Lysosomal Detection Kit and rabbit anti-p47phox. Confocal microscopy was performed; all data shown represent one experiment performed in triplicate.

A further assay relates to IMQ-induced psoriasis. Nature of the assay: IMQ-induced psoriasis-like skin inflammation in mice. To be noted: PLAG 250 mg/kg/day orally, 5 days. It is filed as in vivo. The text has this: Vaseline (Unilever, United Kingdom) was used as a control vehicle cream. […] Control (non-treated) and IMQ-treated groups were administrated orally with the same PBS daily. Psoriasis was scored by a blinded investigator using published criteria based on the following parameters: erythema, scaling, and thickening. […] The tissue sections were stained with hematoxylin and eosin (H&E). For IHC analyses, back skin serial sections were cut and mounted on charged glass slides (Superfrost Plus; Fisher Scientific, Rochester, N.Y., USA). The sections were deparaffinized and then treated with 3% hydrogen peroxide in methanol to quench the endogenous peroxidase activity. […] The sections were incubated with the primary anti-mouse IL-17 (abcam) antibody (1:100) or rat anti-mouse neutrophil (NIMP-R14, Thermo Fisher Scientific Inc.) antibody (1:100) at 4° C. overnight. […] On Day 5, mice were sacrificed and the isolated tissues were analyzed (FIG. 10A). On Day 5, mice were sacrificed and the isolated back skin tissues of control, IMQ treated and IMQ/PLAG co-treated mice were analyzed (FIG. 10B). […] The scoring of control, IMQ treated, and IMQ/PLAG co-treated mice calculated by a blinded investigator using published criteria based on the following parameters: erythema, scaling, and thickening (FIG. 10C). IMQ-treated back skin and one ear were isolated and skin thickness was measured (FIGS. 10D and 10E). […]

Assay [2] deals with NET formation of neutrophil, BALF derived cells. Description: NETosis of PAK-introduced BALF derived cells. The assay is classed as cell-based, mice. To be noted: PAK/PLAG vs PAK. The method, then:
2 hours after PAK infection, BALF derived cells were harvested and detected extracellular DNA-elastase complex by using ELISA and visualized by using confocal microscopy (×400) or scanning electron microscope (SEM) (×8000). […] were washed with PBS and mounted in DAPI-containing fluorescence microscopy mounting medium (Invitrogen). Samples were analyzed with a laser scanning confocal microscope (Carl Zeiss, Oberkochen, Germany).

In the case of `CCCCC/C=C\C/C=C\CCCCCCCC(=O)OC(COC(C)=O)COC(=O)CCCCCCCCCCCCCCC` (racemic) [PLAG, 1-palmitoyl-2-linoleoyl-3-acetylglycerol], in assay [1], the p47phox recruitment initiated worked out at 15 min and the “return to homeostatic levels of p47phox” value came to 60 min. Moreover, in the assay with IMQ-induced psoriasis, the IMQ-induced psoriasis symptoms result is on record as “effectively resolved”. The “NET formation of neutrophil” value in assay [2] is recorded as “accelerated”.

These data come from patent US20220339135A1, “COMPOSITIONS AND METHODS FOR MODULATING AN INFLAMMATORY RESPONSE” (Enzychem Lifesciences Corporation, priority 2019, published 2022).
